In patent publication US20240368173A1, “TRICYCLIC GPR65 MODULATORS” (PATHIOS THERAPEUTICS LIMITED, priority 2021, published 2024):
pIC50: −log10 of the molar value.

These molecules were tested against human recombinant GPR65 (Homo sapiens, UniProt Q8IYL9) (assay: Human GPR65 cAMP HTRF antagonist assay). Details: not given.
Type: cell-based
Outline: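 1321N1 astrocytoma cells stably expressing hrGPR65, with IBMX and EDTA, were preincubated with compound 30 min at room temperature, then acid-activated at assay pH 7.2 (control pH 7.9) for 30 min. cAMP read by HTRF (665/620 nm ratio); IC50 from 4-parameter fit normalised to high/low controls.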

human recombinant GPR65, sequence (Q8IYL9 whole entry): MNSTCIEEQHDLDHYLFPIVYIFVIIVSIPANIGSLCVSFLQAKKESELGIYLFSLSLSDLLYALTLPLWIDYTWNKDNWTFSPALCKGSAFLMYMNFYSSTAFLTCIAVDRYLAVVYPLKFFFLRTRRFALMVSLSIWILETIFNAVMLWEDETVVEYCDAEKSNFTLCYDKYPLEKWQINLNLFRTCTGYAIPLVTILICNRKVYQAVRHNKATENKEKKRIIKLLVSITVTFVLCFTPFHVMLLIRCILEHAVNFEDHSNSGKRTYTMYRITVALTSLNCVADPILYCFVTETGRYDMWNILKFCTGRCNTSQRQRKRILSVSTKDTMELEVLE

Structure (SMILES)	pIC50
O=C(Nc1cc(Cl)c(-c2ccnc(OCC(F)(F)F)c2)cc1F)N1[C@H]2CC[C@@H]1c1c[nH]c(=O)cc1C2 [Compound 309, (6S,9R)-N-(5-Chloro-2-fluoro-4-(2-(2,2,2-trifluoroethoxy)pyridin-4-yl)phenyl)-3-oxo-3,5,6,7,8,9-hexahydro-2H-6,9-epiminocyclohepta[c]pyridine-10-carboxamide]	> 6.30
O=C(Nc1cc(Cl)c(-c2ccnc(OCC(F)(F)F)c2)cc1F)N1[C@H]2CC[C@@H]1c1n[nH]c(=O)cc1C2 [Compound 310, (6S,9R)-N-(5-Chloro-2-fluoro-4-(2-(2,2,2-trifluoroethoxy)pyridin-4-yl)phenyl)-3-oxo-3,5,6,7,8,9-hexahydro-2H-6,9-epiminocyclohepta[c]pyridazine-10-carboxamide]	> 6.30
O=C(Nc1cc(Cl)c(-c2cncc(CF)c2)cc1F)N1[C@H]2CC[C@@H]1c1n[nH]c(=O)cc1C2 [Compound 311, (6S,9R)—N-(5-Chloro-2-fluoro-4-(5-(fluoromethyl)pyridin-3-yl)phenyl)-3-oxo-3,5,6,7,8,9-hexahydro-2H-6,9-epiminocyclohepta[c]pyridazine-10-carboxamide]	> 6.30
O=C(Nc1cc(Cl)c(-c2ccc(C(F)(F)F)nc2)cc1F)N1[C@H]2CC[C@@H]1c1c[nH]c(=O)cc1C2 [Compound 312, (6S,9R)-N-(5-Chloro-2-fluoro-4-(6-(trifluoromethyl)pyridin-3-yl)phenyl)-3-oxo-3,5,6,7,8,9-hexahydro-2H-6,9-epiminocyclohepta[c]pyridine-10-carboxamide]	> 6.30
O=C(Nc1cc(Cl)c(-c2ccc(C(F)(F)F)nc2)cc1F)N1[C@H]2CC[C@@H]1c1n[nH]c(=O)cc1C2 [Compound 313, (6S,9R)-N-(5-Chloro-2-fluoro-4-(6-(trifluoromethyl)pyridin-3-yl)phenyl)-3-oxo-3,5,6,7,8,9-hexahydro-2H-6,9-epiminocyclohepta[c]pyridazine-10-carboxamide]	> 6.30
O=C(Nc1cc(Cl)c(-c2ccc3nonc3n2)cc1F)N1[C@H]2CC[C@@H]1c1n[nH]c(=O)cc1C2 [Compound 314, (6S,9R)-N-(4-([1,2,5]Oxadiazolo[3,4-b]pyridin-5-yl)-5-chloro-2-fluorophenyl)-3-oxo-3,5,6,7,8,9-hexahydro-2H-6,9-epiminocyclohepta[c]pyridazine-10-carboxamide]	> 6.30
O=C(Nc1cc(Cl)c(-c2ccc(OC(F)F)nc2)cc1F)N1[C@H]2CC[C@@H]1c1n[nH]c(=O)cc1C2 [Compound 315, (6S,9R)-N-(5-Chloro-4-(6-(difluoromethoxy)pyridin-3-yl)-2-fluorophenyl)-3-oxo-3,5,6,7,8,9-hexahydro-2H-6,9-epiminocyclohepta[c]pyridazine-10-carboxamide]	> 6.30
O=C(Nc1cc(Cl)c(COc2cncc(F)c2)cc1F)N1[C@H]2CC[C@@H]1c1n[nH]c(=O)cc1C2 [Compound 316, (6S,9R)-N-(5-Chloro-2-fluoro-4-(((5-fluoropyridin-3-yl)oxy)methyl)phenyl)-3-oxo-3,5,6,7,8,9-hexahydro-2H-6,9-epiminocyclohepta[c]pyridazine-10-carboxamide]	> 6.30
CO[C@H]1C[C@H](Oc2ccc(-c3cc(F)c(NC(=O)N4[C@H]5CC[C@@H]4c4c[nH]c(=O)cc4C5)cc3Cl)cn2)C1 [Compound 317, (6S,9R)-N-(5-Chloro-2-fluoro-4-(6-((1r,3R)-3-methoxycyclobutoxy)pyridin-3-yl)phenyl)-3-oxo-3,5,6,7,8,9-hexahydro-2H-6,9-epiminocyclohepta[c]pyridine-10-carboxamide]	> 6.30
O=C(Nc1cc(Cl)c(-c2ccc(OCC3CC3)nc2)cc1F)N1[C@H]2CC[C@@H]1c1n[nH]c(=O)cc1C2 [Compound 318, (6S,9R)-N-(5-Chloro-4-(6-(cyclopropylmethoxy)pyridin-3-yl)-2-fluorophenyl)-3-oxo-3,5,6,7,8,9-hexahydro-2H-6,9-epiminocyclohepta[c]pyridazine-10-carboxamide]	> 6.30
CC(C)COc1ccc(-c2cc(F)c(NC(=O)N3[C@H]4CC[C@@H]3c3n[nH]c(=O)cc3C4)cc2Cl)cn1 [Compound 319, (6S,9R)-N-(5-Chloro-2-fluoro-4-(6-isobutoxypyridin-3-yl)phenyl)-3-oxo-3,5,6,7,8,9-hexahydro-2H-6,9-epiminocyclohepta[c]pyridazine-10-carboxamide]	> 6.30
O=C(Nc1cc(Cl)c(-c2ccc(OCCC(F)(F)F)nc2)cc1F)N1[C@H]2CC[C@@H]1c1n[nH]c(=O)cc1C2 [Compound 320, (6S,9R)-N-(5-Chloro-2-fluoro-4-(6-(3,3,3-trifluoropropoxy)pyridin-3-yl)phenyl)-3-oxo-3,5,6,7,8,9-hexahydro-2H-6,9-epiminocyclohepta[c]pyridazine-10-carboxamide]	> 6.30
CO[C@H]1C[C@@H](Oc2ccc(-c3cc(F)c(NC(=O)N4[C@H]5CC[C@@H]4c4c[nH]c(=O)cc4C5)cc3Cl)cn2)C1 [Compound 321, (6S,9R)-N-(5-Chloro-2-fluoro-4-(6-((1s,3S)-3-methoxycyclobutoxy)pyridin-3-yl)phenyl)-3-oxo-3,5,6,7,8,9-hexahydro-2H-6,9-epiminocyclohepta[c]pyridine-10-carboxamide]	> 6.30
O=C(Nc1cc(Cl)c(-c2ccc(OCC(F)F)nc2)cc1F)N1[C@H]2CC[C@@H]1c1c[nH]c(=O)cc1C2 [Compound 322, (6S,9R)-N-(5-Chloro-4-(6-(2,2-difluoroethoxy)pyridin-3-yl)-2-fluorophenyl)-3-oxo-3,5,6,7,8,9-hexahydro-2H-6,9-epiminocyclohepta[c]pyridine-10-carboxamide]	> 6.30
O=C(Nc1cc(Cl)c(-c2cc(F)c3nonc3c2)cc1F)N1[C@H]2CC[C@@H]1c1n[nH]c(=O)cc1C2 [Compound 323, (6S,9R)-N-(5-Chloro-2-fluoro-4-(7-fluorobenzo[c][1,2,5]oxadiazol-5-yl)phenyl)-3-oxo-3,5,6,7,8,9-hexahydro-2H-6,9-epiminocyclohepta[c]pyridazine-10-carboxamide]	> 6.30
O=C(Nc1cc(Cl)c(-c2ccc(OC(F)F)nc2)cc1F)N1[C@H]2CC[C@@H]1c1ccnc(F)c1C2 [Compound 324, (5R,8S)-N-(5-Chloro-4-(6-(difluoromethoxy)pyridin-3-yl)-2-fluorophenyl)-1-fluoro-6,7,8,9-tetrahydro-5H-5,8-epiminocyclohepta[c]pyridine-10-carboxamide]	> 6.30
O=C(Nc1cc(Cl)c(-c2ccc(OC(F)F)nc2)cc1F)N1[C@H]2CC[C@@H]1c1c[nH]c(=O)cc1C2 [Compound 325, (6S,9R)-N-(5-Chloro-4-(6-(difluoromethoxy)pyridin-3-yl)-2-fluorophenyl)-3-oxo-3,5,6,7,8,9-hexahydro-2H-6,9-epiminocyclohepta[c]pyridine-10-carboxamide]	> 6.30
O=C(Nc1cc(Cl)c(-c2cc3nonc3cc2F)cc1F)N1[C@H]2CC[C@@H]1c1n[nH]c(=O)cc1C2 [Compound 326, (6S,9R)-N-(5-Chloro-2-fluoro-4-(6-fluorobenzo[c][1,2,5]oxadiazol-5-yl)phenyl)-3-oxo-3,5,6,7,8,9-hexahydro-2H-6,9-epiminocyclohepta[c]pyridazine-10-carboxamide]	> 6.30
O=C(Nc1cc(Cl)c(-c2ccc3nonc3c2F)cc1F)N1[C@H]2CC[C@@H]1c1n[nH]c(=O)cc1C2 [Compound 327, (6S,9R)-N-(5-Chloro-2-fluoro-4-(4-fluorobenzo[c][1,2,5]oxadiazol-5-yl)phenyl)-3-oxo-3,5,6,7,8,9-hexahydro-2H-6,9-epiminocyclohepta[c]pyridazine-10-carboxamide]	> 6.30
O=C(Nc1cc(Cl)c(-c2cnc(OCC(F)(F)F)c(F)c2)cc1F)N1[C@H]2CC[C@@H]1c1n[nH]c(=O)cc1C2 [Compound 328, (6S,9R)-N-(5-Chloro-2-fluoro-4-(5-fluoro-6-(2,2,2-trifluoroethoxy)pyridin-3-yl)phenyl)-3-oxo-3,5,6,7,8,9-hexahydro-2H-6,9-epiminocyclohepta[c]pyridazine-10-carboxamide]	> 6.30
O=C(Nc1cc(Cl)c(-c2ccc3nonc3c2)cc1F)N1[C@H]2CC[C@@H]1C(F)(F)c1c2ccnc1F [Compound 329, (5S,8R)-N-(4-(Benzo[c][1,2,5]-oxadiazol-5-yl)-5-chloro-2-fluorophenyl)-1,9,9-trifluoro-6,7,8,9-tetrahydro-5H-5,8-epiminocyclohepta[c]pyridine-10-carboxamide]	5.30 to 6.30
O=C(Nc1cc(Cl)c(-c2ccc3nonc3c2)cc1F)N1[C@@H]2CC[C@H]1C(F)(F)c1c2ccnc1F [Compound 330, (5R,8S)-N-(4-(Benzo[c][1,2,5]-oxadiazol-5-yl)-5-chloro-2-fluorophenyl)-1,9,9-trifluoro-6,7,8,9-tetrahydro-5H-5,8-epiminocyclohepta[c]pyridine-10-carboxamide]	> 6.30
O=C(Nc1cc(Cl)c(-c2ccc(OC(C(F)F)C(F)F)nc2)cc1F)N1[C@H]2CC[C@@H]1c1n[nH]c(=O)cc1C2 [Compound 331, (6S,9R)-N-(5-Chloro-2-fluoro-4-(6-((1,1,3,3-tetrafluoropropan-2-yl)oxy)pyridin-3-yl)phenyl)-3-oxo-3,5,6,7,8,9-hexahydro-2H-6,9-epiminocyclohepta[c]pyridazine-10-carboxamide]	> 6.30
O=C(Nc1cc(Cl)c(-c2ccc(OCCC(F)(F)F)nc2)cc1F)N1[C@H]2CC[C@@H]1c1c[nH]c(=O)cc1C2 [Compound 332, (6S,9R)-N-(5-Chloro-2-fluoro-4-(6-(3,3,3-trifluoropropoxy)pyridin-3-yl)phenyl)-3-oxo-3,5,6,7,8,9-hexahydro-2H-6,9-epiminocyclohepta[c]pyridine-10-carboxamide]	> 6.30

Same assay, conditions: 1321N1-hrGPR65 cells, cAMP HTRF, assay pH 7.2; read-out: hGPR65 IC50 (Activity of selected compounds according to the invention)

Structure (SMILES)	pIC50
O=C(Nc1c(F)cc(Cl)c(Cl)c1F)N1[C@H]2CC[C@@H]1c1n[nH]c(=O)cc1C2 [Compound 308, (6S,9R)-N-(3,4-Dichloro-2,6-difluorophenyl)-3-oxo-3,5,6,7,8,9-hexahydro-2H-6,9-epiminocyclohepta[c]pyridazine-10-carboxamide]	5.30 to 6.30
